Assay results reported in US20110117166A1, “IMPLANTABLE BONE GRAFT MATERIALS” (AFFINERGY, INC., priority 2009, published 2011).
Ends that are not written are not given here.

Key:
BMP-7 = biological target: T1, BMP-7 (Homo sapiens, UniProt P18075); test: ELISA of BMP-7 bound to immobilized BMP binding peptides; conditions: FIG. 14B
T1 sequence (P18075 293-431): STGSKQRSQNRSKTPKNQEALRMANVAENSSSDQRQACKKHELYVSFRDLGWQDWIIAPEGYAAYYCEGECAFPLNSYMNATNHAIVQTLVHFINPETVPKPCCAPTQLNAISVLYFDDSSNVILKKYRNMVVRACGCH

BMP-2 = biological target: T2, BMP-2 (Homo sapiens, UniProt P12643); test: ELISA of BMP-2 bound to biotinylated peptides immobilized on streptavidin plates; format: binding; conditions: FIG. 14A; BMP-2 200 nM, 20 nM and 2 nM, 45 minutes
T2 sequence (P12643 283-396): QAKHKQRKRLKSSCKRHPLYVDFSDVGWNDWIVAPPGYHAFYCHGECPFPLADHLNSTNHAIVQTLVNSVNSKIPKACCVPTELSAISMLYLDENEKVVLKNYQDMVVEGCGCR
Method: BMP binding peptides SEQ ID NOs:1-4 & 8-10 were identified as described in US Patent Application Publication No. US20060051395A1. Briefly, the peptides were identified by phage display using immobilized BMP-2 as a substrate for the phage library selections. Synthetic peptides SEQ ID NOs: 1-2 were determined to bind to BMP-2 with a relative EC50 value of 0.8 nM and 0.9 nM, respectively (data not shown). Separately, the relative binding affinity of peptides SEQ ID NOs: 1-2 for BMP-2 is shown in FIG. 14A (SEQ ID NO: 1 is denoted as P9 and SEQ ID NO: 2 is denoted as P10). Briefly, the results shown in FIG. 14A were generated by immobilizing biotinylated BMP binding peptides SEQ ID NOs:1 & 2 on streptavidin coated plates. Serial dilutions of 200 nM, 20 nM and 2 nM of BMP-2 were incubated with the immobilized BMP binding peptides for 45 minutes, washed, and bound BMP quantified using ELISA.

C2C12 cells = test: Alkaline phosphatase secretion by C2C12 cells in response to BMP-2 with BMP binding peptide in solution; format: cell-based; conditions: peptide 0-3500 nM, 3 days, FIG. 16
Method: In an experiment to test the biological activity of BMP-2 delivered by BMP binding peptide, alkaline phosphatase secreted by C2C12 cells in response to BMP-2 was measured in the presence and absence of BMP binding peptide in solution. C2C12 cells were incubated with BMP-2 (35 nM) and BMP binding peptide at a concentration ranging from 0-3500 nM. The C2C12 cells were incubated with the BMP-2 and BMP binding peptide for 3 days and the alkaline phosphatase assay was performed as described herein above.

rat calvarial defect = test: Rat calvarial defect model of bone healing (μCT and histology); format: in vivo; conditions: conclusion from saline-hydrated groups
Method: The ability of each of the bone void filler collagen/TCP composites (unmodified and BMP binding peptide modified at 5-15 μmol peptide/g collagen described in Example 5) to speed bone healing was assessed in a rat calvarial defect model. A defect was introduced into male Sprague Dawley rats (n=8) as described previously (Poehling, et. al, J Periodontol, 2006, 77:1582-90). A full thickness circular defect, 6.8 mm in diameter, was made in the parietal bone, centered across the midline. The disc of bone was removed, and the void was filled with bone graft substitute material hydrated with or without BMA harvested from the tibia (saline was used for hydration without BMA). […] The calvaria were removed and analyzed by micro-computed tomography (μCT) to provide measurements of bone density (SCANCO MEDICAL; Wayne, Pa.). […] For each sample, 6 sections evenly distributed across the defect were scored by two independent observers, blind to the treatment groups. The slides were scored for osteogenic cellular activity, new bone area, and new bone maturity according to the following procedure. For osteogenic cellular activity, fibroblasts/loose connective tissue, immature cartilage progenitors, immature bone progenitors, giant cells, osteoclasts, osteoblasts, and osteocytes were counted and scored according to the following scale: 1=Rare; 2=Few; 3=Moderate; and 4=Dense. […]

| relative affinity for BMP-7 (BMP-7) | relative affinity for BMP-2 (BMP-2) | Substance | effect on BMP-2 biological activity (alkaline phosphatase secretion) (C2C12 cells; BMP-2 35 nM) | BMP-2 activity of the peptide on its own (alkaline phosphatase secretion) (C2C12 cells) | bioactivity of the peptide itself in bone formation (rat calvarial defect) |
| --- | --- | --- | --- | --- | --- |
| high relative affinity | high relative affinity | GGALGFPLKGEVVEGWA-NH2 (C-terminus assumed) [SEQ ID NO: 2] | does not interfere with the biological activity of BMP-2 | does not have BMP-2 activity on its own | does not possess bioactivity itself |
| high relative affinity | high relative affinity | GGGAWEAFSSLSGSRV-NH2 (C-terminus assumed) [SEQ ID NO: 1] |  |  |  |
